The results in this text go back to US11667602B2, “Compounds and their use” (AstraZeneca AB, priority 2020, dated 2023).

The assay addresses T1, human RXFP1 (Homo sapiens, UniProt Q9HBX9).
T1 sequence (Q9HBX9 1-757): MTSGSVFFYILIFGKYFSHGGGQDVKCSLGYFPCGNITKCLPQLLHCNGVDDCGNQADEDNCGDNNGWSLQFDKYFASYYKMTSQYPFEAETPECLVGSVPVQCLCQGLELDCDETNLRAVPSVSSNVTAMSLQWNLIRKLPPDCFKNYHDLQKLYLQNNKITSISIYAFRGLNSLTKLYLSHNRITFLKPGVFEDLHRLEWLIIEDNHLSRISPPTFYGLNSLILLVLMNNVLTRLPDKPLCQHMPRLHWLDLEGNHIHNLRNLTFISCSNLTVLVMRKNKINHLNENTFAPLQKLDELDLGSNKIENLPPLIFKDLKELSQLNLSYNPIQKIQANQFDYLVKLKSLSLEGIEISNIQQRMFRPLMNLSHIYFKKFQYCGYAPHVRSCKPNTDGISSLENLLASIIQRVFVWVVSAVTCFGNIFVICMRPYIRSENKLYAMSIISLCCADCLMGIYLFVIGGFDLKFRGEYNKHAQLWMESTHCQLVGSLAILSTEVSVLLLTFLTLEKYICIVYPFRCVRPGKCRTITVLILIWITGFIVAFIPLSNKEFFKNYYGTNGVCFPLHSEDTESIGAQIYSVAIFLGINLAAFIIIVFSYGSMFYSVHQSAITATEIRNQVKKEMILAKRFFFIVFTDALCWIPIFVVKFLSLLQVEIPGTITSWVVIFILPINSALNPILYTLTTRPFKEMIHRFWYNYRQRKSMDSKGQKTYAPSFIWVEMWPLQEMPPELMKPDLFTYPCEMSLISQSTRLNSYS
Nature of the assay: RXFP1 Hu cAMP (Test A). It is filed as cell-based. Also noted: expressed in transfected cells; host or cells: Jump-In T-REx CHO-K1 cells (ThermoFisher), induced with 10 ng/ml doxycycline for 24 h. The conditions noted are these: RXFP1 Hu cAMP; for EC50: read-out: Test A EC50. The essentials:
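CHO-K1 (Jump-In T-REx), RXFP1 induced w/ 10 ng/ml doxycycline 24 h, cryopreserved. 0.5 mM IBMX final. cAMP by HTRF, 2 h RT, std curve.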

The term EC50 denotes the concentration giving half of the maximal effect. In the case of `COc1cc(F)c(O[C@@H]2CC[C@H](C(=O)O)OC2)cc1C(=O)NC1[C@H]2CC[C@H](C2)[C@@H]1C(=O)Nc1cccc(S(=O)(=O)C(F)(F)F)c1` (mixture of isomers) [Example 442], the “Test A Sinf” value is reported as 103% and the EC50 is 580 nM.
Consider `COc1cc(F)c(OCc2ccccc2C(=O)O)cc1C(=O)N[C@H]1[C@@H](C(=O)Nc2cccc(S(=O)(=O)C(F)(F)F)c2)[C@@H]2C=C[C@H]1C2` (racemic) [Example 448, rac-2-((2-Fluoro-4-methoxy-5-(((1R,2R,3S,4S)-3-((3-((trifluoromethyl)sulfonyl)phenyl)carbamoyl)bicyclo[2.2.1]hept-5-en-2-yl)carbamoyl)phenoxy)methyl)benzoic acid], for which the “Test A Sinf” value is on record as 77% and the EC50 was determined as 2600 nM.
Turning to `COc1cc(F)c(OCc2cccc(C(=O)O)c2)cc1C(=O)N[C@H]1[C@@H](C(=O)Nc2cccc(S(=O)(=O)C(F)(F)F)c2)[C@@H]2C=C[C@H]1C2` (racemic) [Example 449], the “Test A Sinf” value came to 108% and the EC50 is 1600 nM.
Regarding `COc1cc(F)c(OCc2ccc(C(=O)O)cc2)cc1C(=O)N[C@H]1[C@@H](C(=O)Nc2cccc(S(=O)(=O)C(F)(F)F)c2)[C@@H]2C=C[C@H]1C2` (racemic) [Example 450], the “Test A Sinf” value came out at 107% and the EC50 was found to be 610 nM.
`COc1cc(F)c(OCc2ccc(C(C)(C)C(=O)O)cc2)cc1C(=O)N[C@H]1[C@@H](C(=O)Nc2cccc(S(=O)(=O)C(F)(F)F)c2)[C@@H]2C=C[C@H]1C2` (racemic) [Example 452]: the “Test A Sinf” value worked out at 104% and the EC50 amounted to 980 nM.
As to `COc1cc(F)c(OCc2cccc(CC(=O)O)c2)cc1C(=O)N[C@H]1[C@@H](C(=O)Nc2cccc(S(=O)(=O)C(F)(F)F)c2)[C@@H]2C=C[C@H]1C2` (racemic) [Example 453], the “Test A Sinf” value is 155% and the EC50 was determined as 2000 nM.
Take `COc1cc(F)c(OCc2cccc(C(C)(C)C(=O)O)c2)cc1C(=O)N[C@H]1[C@@H](C(=O)Nc2cccc(S(=O)(=O)C(F)(F)F)c2)[C@@H]2C=C[C@H]1C2` (racemic) [Example 454]: the “Test A Sinf” value is on record as 76%.
As to `COc1cc(F)c(OCCCCCC(=O)O)cc1C(=O)N[C@H]1[C@@H](C(=O)Nc2cccc(S(=O)(=O)C(F)(F)F)c2)[C@@H]2C=C[C@H]1C2` (racemic) [Example 455], the “Test A Sinf” value was 91% and the EC50 amounted to 160 nM.
On to `COc1cc(F)c(OCCCC(=O)O)cc1C(=O)N[C@H]1[C@@H](C(=O)Nc2cccc(S(=O)(=O)C(F)(F)F)c2)[C@@H]2C=C[C@H]1C2` (racemic) [Example 456], for which the “Test A Sinf” value was 129%.
The same measure, in the same setting: next, `COc1cc(F)c(OC2CCC(C(=O)O)CC2)cc1C(=O)N[C@H]1[C@@H](C(=O)Nc2cccc(S(=O)(=O)C(F)(F)F)c2)[C@@H]2C=C[C@H]1C2` (mixture of isomers) [Example 457]: 56%.
For the compound `COc1cc(C#N)c(O[C@H]2CC[C@@](C)(C(=O)O)CC2)cc1C(=O)N[C@@H]1C2CCC(CC2)[C@@H]1C(=O)NCC1(C)CCC1` (racemic) [Example 468, (1R,4s)-4-(2-Cyano-4-methoxy-5-(((2SR,3RS)-3-(((1-methylcyclobutyl)methyl)carbamoyl)bicyclo[2.2.2]octan-2-yl)carbamoyl)phenoxy)-1-methylcyclohexane-1-carboxylic acid], the “Test A Sinf” value was 93% and the EC50 amounted to 4.1 nM.
For the compound `COc1cc(C#N)c(O[C@H]2CC[C@@](C)(C(=O)O)CC2)cc1C(=O)N[C@H]1[C@@H](C(=O)NCC2(C)CCC2)[C@H]2C=C[C@@H]1CC2` (racemic) [Example 469, (1R,4s)-4-(2-Cyano-4-methoxy-5-(((1RS,2SR,3RS,4SR)-3-(((1-methylcyclobutyl)methyl)carbamoyl)bicyclo[2.2.2]oct-5-en-2-yl)carbamoyl)phenoxy)-1-methylcyclohexane-1-carboxylic acid], the “Test A Sinf” value amounted to 99% and the half-maximal effective concentration (EC50) was 36 nM.
In the same order, the values of `COc1cc(F)c(O[C@H]2CC[C@@](C)(C(=O)O)CC2)cc1C(=O)N[C@H]1[C@H]2CC[C@H](CC2)[C@H]1C(=O)NCC1(C)CCC1` (racemic) [Example 470, (1R,4s)-4-(2-Fluoro-4-methoxy-5-(((2SR,3RS)-3-(((1-methylcyclobutyl)methyl)carbamoyl)bicyclo[2.2.2]octan-2-yl)carbamoyl)phenoxy)-1-methylcyclohexane-1-carboxylic acid] are 102% and 17 nM.
On to `COc1cc(F)c(O[C@H]2CC[C@@](C)(C(=O)O)CC2)cc1C(=O)N[C@H]1[C@@H](C(=O)NCC2(C)CCC2)[C@H]2C=C[C@@H]1CC2` (racemic) [Example 471, (1R,4s)-4-(2-Fluoro-4-methoxy-5-(((1RS,2SR,3RS,4SR)-3-(((1-methylcyclobutyl)methyl)carbamoyl)bicyclo[2.2.2]oct-5-en-2-yl)carbamoyl)phenoxy)-1-methylcyclohexane-1-carboxylic acid], for which the “Test A Sinf” value is listed as 95% and the EC50 was 91 nM.
On to `COc1cc(F)c(O[C@H]2CC[C@@](C)(C(=O)O)CC2)cc1C(=O)N[C@@H]1CCN(C(C)=O)C[C@@H]1C(=O)Nc1cccc(S(=O)(=O)C(F)(F)F)c1` (racemic) [Example 487, (1R,4s)-4-(5-(((3RS,4SR)-1-Acetyl-3-((3-((trifluoromethyl)sulfonyl)phenyl)carbamoyl)piperidin-4-yl)carbamoyl)-2-fluoro-4-methoxyphenoxy)-1-methylcyclohexane-1-carboxylic acid], for which the EC50 is more than 40000 nM.
As to `COc1cc(F)c(O[C@H]2CC[C@@H](C(=O)O)CC2)cc1C(=O)N[C@H]1[C@@H](C(=O)Nc2cccc(S(=O)(=O)C(F)(F)F)c2)[C@@H]2C=C[C@H]1C2` (racemic) [Example 495], the “Test A Sinf” value amounted to 98% and the EC50 was determined as 120 nM.
As to `COc1cc(F)c(O[C@H]2CC[C@@H](C(=O)OC)CC2)cc1C(=O)N[C@@H]1C[C@H](O)C[C@@H]1C(=O)Nc1cccc(S(=O)(=O)C(F)(F)F)c1` (racemic) [Example 496], the EC50 is more than 40000 nM.
For `COc1cc(F)c(O[C@H]2CC[C@@](C)(C(=O)O)CC2)cc1C(=O)N[C@@H]1[C@H]2CC[C@H](C2)[C@@H]1C(=O)NC1CCCC1(C)C` (relative stereo) [Example 503, (1S,4s)-4-(5-(((1S,2R,3S,4R)-3-(((R*)-2,2-Dimethylcyclopentyl)carbamoyl)bicyclo[2.2.1]heptan-2-yl)carbamoyl)-2-fluoro-4-methoxyphenoxy)-1-methylcyclohexane-1-carboxylic acid], the “Test A Sinf” value came to 102% and the EC50 is 60 nM.
Regarding `COc1cc(F)c(O[C@H]2CC[C@@](C)(C(=O)O)CC2)cc1C(=O)N[C@@H]1[C@H]2CC[C@H](C2)[C@@H]1C(=O)N[C@H]1CCCC1(C)C` (relative stereo) [Example 504, (1S,4s)-4-(5-(((1S,2R,3S,4R)-3-(((R*)-2,2-Dimethylcyclopentyl)carbamoyl)bicyclo[2.2.1]heptan-2-yl)carbamoyl)-2-fluoro-4-methoxyphenoxy)-1-methylcyclohexane-1-carboxylic acid], the “Test A Sinf” value amounted to 91% and the concentration for a half-maximal effect (EC50) stood at 600 nM.
Turning to `COc1cc(F)c(OC2CCC(CO)(C(=O)O)CC2)cc1C(=O)N[C@H]1[C@@H](C(=O)NCC2(C)CCC2)[C@H]2CC[C@@H]1O2` (relative stereo) [Example 533, (1R,4s)-4-(2-Fluoro-4-methoxy-5-(((1S*,2S*,3R*,4R*)-3-(((1-methylcyclobutyl)methyl)carbamoyl)-7-oxabicyclo[2.2.1]heptan-2-yl)carbamoyl)phenoxy)-1-(hydroxymethyl)cyclohexane-1-carboxylic acid], the concentration for a half-maximal effect (EC50) is more than 40000 nM.
As for `COc1cc(F)c(OC2CCC(CO)(C(=O)O)CC2)cc1C(=O)N[C@H]1C[C@H](OC)C[C@H]1C(=O)NCC(C)(C)C` (relative stereo) [Example 549, (1R,4s)-4-(2-Fluoro-4-methoxy-5-(((1S*,2R*,4R*)-4-methoxy-2-(neopentylcarbamoyl)cyclopentyl)carbamoyl)phenoxy)-1-(hydroxymethyl)cyclohexane-1-carboxylic acid], the “Test A Sinf” value came out at 94% and the concentration for a half-maximal effect (EC50) was 1300 nM.
With `COc1cc(F)c(OC2CCC(O)(C(=O)O)CC2)cc1C(=O)N[C@@H]1[C@@H]2CC[C@@H](C2)[C@@H]1C(=O)Nc1cccc(S(=O)(=O)C(F)(F)F)c1` (relative stereo) [Example 583, (1R,4r)-4-(2-Fluoro-4-methoxy-5-(((1R*,2R*,3S*,4S*)-3-((3-((trifluoromethyl)sulfonyl)phenyl)carbamoyl)bicyclo[2.2.1]heptan-2-yl)carbamoyl)phenoxy)-1-hydroxycyclohexane-1-carboxylic acid], the “Test A Sinf” value is recorded as 84% and the EC50 was 350 nM.
